Measurements: patent US20090124502A1, “USE OF SULFURYL FLUORIDE AS A SPROUT […]” (Dow AgroSciences LLC, priority 2007, published 2009)

Experiments:
Format in all cases: in vivo, Solanum tuberosum
Russet potatoes = test: Sulfuryl fluoride fumigation of Russet potatoes, physical and sprouting observations (Example 1); parameters: key to Tuber Firmness: 1 = firm; 2 = slightly spongy; 3 = very spongy, probably rotten
Experimental: (§1) Russet and red potatoes were purchased from an organic retail store and used for this study. These potatoes were exposed to 4 treatments (0 gram-hour/cubic meter [g-h/m^3], 500 g-h/m^3, 1000 g-h/m^3 and 1500 g-h/m^3) in a Styrofoam™ fumigation chamber. The exposure time was 12 hrs at ambient temperature of approximately 25° C. and relative humidity of 50 percent.

Red potatoes = test: Sulfuryl fluoride fumigation of Red potatoes, physical and sprouting observations (Example 1); parameters: key to Tuber Firmness: 1 = firm; 2 = slightly spongy; 3 = very spongy, probably rotten
Experimental: as §1

Russet Burbank potatoes = test: Sulfuryl fluoride fumigation of stored Russet Burbank potatoes, physical and sprouting observations (Example 2)
Experimental: A second study was conducted using stored Russet Burbank potatoes. These potatoes were exposed to 3 treatments (O g-h/m3, 300 g-h/m^3, and 500 g-h/m^3) in a Styrofoam™ fumigation chamber. The exposure time was 12 hrs at ambient temperature of approximately 25° C. and relative humidity of 50 percent. The treatments were replicated 3 times. Each replicate had approximately 10 lbs of potatoes.

organic Russet potatoes = test: Sulfuryl fluoride fumigation of stored organic Russet potatoes, physical and sprouting observations (Example 3); parameters: Avg Length of sprouts: unit not given here
Experimental: A third study was conducted using stored organic Russet potatoes. These potatoes were exposed to […] (0 g-h/m3, 50 g-h/m^3, 100 g-h/m^3 150 g-h/m^3 and 200 g-h/m^3) in a Styrofoam™ fumigation chamber. The exposure time was 12 hrs at ambient temperature of approximately 25° C. and relative humidity of 50 percent. The treatments were replicated 3 times. Each replicate had approximately 5 lbs of potatoes.

[1] = 500 g-h/m^3, 12 hrs exposure, 1 week after exposure
[2] = 500 g-h/m^3, 12 hrs exposure, 2 weeks after exposure
[3] = 500 g-h/m^3, 12 hrs exposure, 3 weeks after exposure
[4] = 1000 g-h/m^3, 12 hrs exposure, 1 week after exposure
[5] = 1000 g-h/m^3, 12 hrs exposure, 2 weeks after exposure
[6] = 1500 g-h/m^3, 12 hrs exposure, 1 week after exposure
[7] = 1500 g-h/m^3, 12 hrs exposure, 2 weeks after exposure
[8] = 500 g-h/m^3, 12 hrs exposure, 10 weeks after exposure
[9] = 300 g-h/m^3, 6 days after exposure, mean of 3 plots
[10] = 300 g-h/m^3, 6 days after exposure, single plots (replicates)
[11] = 300 g-h/m^3, 9 days after exposure, mean
[12] = 500 g-h/m^3, 6 days after exposure, mean of 3 plots
[13] = 500 g-h/m^3, 6 days after exposure, single plots (replicates)
[14] = 500 g-h/m^3, 9 days after exposure, mean
[15] = 50 g-h/m^3, 7 days after exposure
[16] = 50 g-h/m^3, 21 days after exposure
[17] = 50 g-h/m^3, 31 days after exposure
[18] = 100 g-h/m^3, 7 days after exposure
[19] = 100 g-h/m^3, 21 days after exposure
[20] = 100 g-h/m^3, 31 days after exposure
[21] = 150 g-h/m^3, 7 days after exposure
[22] = 150 g-h/m^3, 21 days after exposure
[23] = 150 g-h/m^3, 31 days after exposure
[24] = 200 g-h/m^3, 7 days after exposure
[25] = 200 g-h/m^3, 21 days after exposure
[26] = 200 g-h/m^3, 31 days after exposure

O=S(=O)(F)F [sulfuryl fluoride]
Average length of sprout (Russet potatoes; [1]): <1 mm | Avg. No. of Sprouts (Russet potatoes; [1]): 1.4 | Tuber Firmness (Russet potatoes; [1]): 1 | Average length of sprout (Russet potatoes; [2]): <1 mm | Avg. No. of Sprouts (Russet potatoes; [2]): 1.4 | Tuber Firmness (Russet potatoes; [2]): 1 | Average length of sprout (Russet potatoes; [3]): <3 mm | Avg. No. of Sprouts (Russet potatoes; [3]): 1.4 | Tuber Firmness (Russet potatoes; [3]): 2 | Average length of sprout (Russet potatoes; [4]): <1 mm | Avg. No. of Sprouts (Russet potatoes; [4]): 0.3 | Tuber Firmness (Russet potatoes; [4]): 1 | Average length of sprout (Russet potatoes; [5]): <1 mm | Avg. No. of Sprouts (Russet potatoes; [5]): 0.3 | Tuber Firmness (Russet potatoes; [5]): 1 | Average length of sprout (Russet potatoes; [6]): 0 mm | Avg. No. of Sprouts (Russet potatoes; [6]): 0 | Tuber Firmness (Russet potatoes; [6]): 3 | Average length of sprout (Russet potatoes; [7]): 0 mm | Avg. No. of Sprouts (Russet potatoes; [7]): 0 | Tuber Firmness (Russet potatoes; [7]): 3 | Average length of sprout (Red potatoes; [1]): 0 mm | Avg. No. of Sprouts (Red potatoes; [1]): 0 | Tuber Firmness (Red potatoes; [1]): 1 | Average length of sprout (Red potatoes; [2]): 0 mm | Avg. No. of Sprouts (Red potatoes; [2]): 0 | Tuber Firmness (Red potatoes; [2]): 1 | Avg. No. of Sprouts (Red potatoes; [3]): 1.5 | Tuber Firmness (Red potatoes; [3]): 1 | Avg. No. of Sprouts (Red potatoes; [8]): 1.5 | Tuber Firmness (Red potatoes; [8]): 1 | Average length of sprout (Red potatoes; [4]): 0 mm | Avg. No. of Sprouts (Red potatoes; [4]): 0 | Tuber Firmness (Red potatoes; [4]): 2 | Average length of sprout (Red potatoes; [5]): 0 mm | Avg. No. of Sprouts (Red potatoes; [5]): 0 | Tuber Firmness (Red potatoes; [5]): 2 | Average length of sprout (Red potatoes; [6]): 0 mm | Avg. No. of Sprouts (Red potatoes; [6]): 0 | Tuber Firmness (Red potatoes; [6]): 3 | Average length of sprout (Red potatoes; [7]): 0 mm | Avg. No. of Sprouts (Red potatoes; [7]): 0 | Tuber Firmness (Red potatoes; [7]): 3 | Avg Length of sprouts (Russet Burbank potatoes; [9]): 0.0 b MM | Tuber Firmness (Russet Burbank potatoes; [9]): 0.0 a 0-3 | Avg Length of sprouts (Russet Burbank potatoes; [10]): 0.0 MM | Avg. Number of sprouts (Russet Burbank potatoes; [10]): 0.00 | Tuber Firmness (Russet Burbank potatoes; [10]): 0.0 0-3 | Number of Sprouts (Russet Burbank potatoes; 300 g-h/m^3, 6 days after exposure, single plots (replicates), 10 pounds): 0.0 | Avg Length of sprouts (Russet Burbank potatoes; [11]): 0.0 b | Avg. Number of sprouts (Russet Burbank potatoes; [11]): 0.00 b | Number of Sprouts (Russet Burbank potatoes; [11]): 0.0 b | sprout growth (Russet Burbank potatoes; 300 g-h/m^3 and 500 g-h/m^3 treatments, Table 10 and 11 (6 and 9 days after exposure)): stopped sprouts from growing | Avg Length of sprouts (Russet Burbank potatoes; [12]): 0.0 b MM | Tuber Firmness (Russet Burbank potatoes; [12]): 0.0 a 0-3 | Avg Length of sprouts (Russet Burbank potatoes; [13]): 0.0 MM | Avg. Number of sprouts (Russet Burbank potatoes; [13]): 0.00 | Tuber Firmness (Russet Burbank potatoes; [13]): 0.0 0-3 | Number of Sprouts (Russet Burbank potatoes; 500 g-h/m^3, 6 days after exposure, single plots (replicates), 10 pounds): 0.0 | Avg Length of sprouts (Russet Burbank potatoes; [14]): 0.0 b | Avg. Number of sprouts (Russet Burbank potatoes; [14]): 0.00 b | Number of Sprouts (Russet Burbank potatoes; [14]): 0.0 b | sprout growth (organic Russet potatoes; 50 g-h/m^3, 21 DAT, compared to 150 and 200 g-h/m^3 treatments): significant sprout growth | Avg Length of sprouts (organic Russet potatoes; [15]): 1.1 | Avg. Number of sprouts (organic Russet potatoes; [15]): 3.00 | Number of Sprouts (organic Russet potatoes; [15]): 60.0 | Tuber Firmness (organic Russet potatoes; [15]): 0.0 MM | Avg Length of sprouts (organic Russet potatoes; [16]): 9.1 | Avg. Number of sprouts (organic Russet potatoes; [16]): 6.3 | Number of Sprouts (organic Russet potatoes; [16]): 126.0 | Tuber Firmness (organic Russet potatoes; [16]): 1.0 MM | Avg Length of sprouts (organic Russet potatoes; [17]): 21.1 | Avg. Number of sprouts (organic Russet potatoes; [17]): 6.3 | Number of Sprouts (organic Russet potatoes; [17]): 126.0 | Tuber Firmness (organic Russet potatoes; [17]): 2.0 MM | sprout inhibition (organic Russet potatoes; 50 to 200 g-h/m^3, Table 13 (21 days after exposure)): dose dependent | sprout growth (organic Russet potatoes; 100 g-h/m^3, 21 DAT, compared to 150 and 200 g-h/m^3 treatments): significant sprout growth | Avg Length of sprouts (organic Russet potatoes; [18]): 1.0 | Avg. Number of sprouts (organic Russet potatoes; [18]): 1.9 | Number of Sprouts (organic Russet potatoes; [18]): 52.0 | Tuber Firmness (organic Russet potatoes; [18]): 0.0 MM | Avg Length of sprouts (organic Russet potatoes; [19]): 6.5 | Avg. Number of sprouts (organic Russet potatoes; [19]): 2.4 | Number of Sprouts (organic Russet potatoes; [19]): 88.0 | Tuber Firmness (organic Russet potatoes; [19]): 1.0 MM | Avg Length of sprouts (organic Russet potatoes; [20]): 16.5 | Avg. Number of sprouts (organic Russet potatoes; [20]): 2.4 | Number of Sprouts (organic Russet potatoes; [20]): 88.0 | Tuber Firmness (organic Russet potatoes; [20]): 1.0 MM | sprout growth (organic Russet potatoes; 150 g-h/m^3, 7 DAT): slight sprout growth | sprout growth (organic Russet potatoes; 150 g-h/m^3, 21 DAT observations): did not grow further | Avg Length of sprouts (organic Russet potatoes; [21]): 0.2 | Avg. Number of sprouts (organic Russet potatoes; [21]): 0.3 | Number of Sprouts (organic Russet potatoes; [21]): 17.0 | Tuber Firmness (organic Russet potatoes; [21]): 0.0 MM | Avg Length of sprouts (organic Russet potatoes; [22]): 0.2 | Avg. Number of sprouts (organic Russet potatoes; [22]): 0.3 | Number of Sprouts (organic Russet potatoes; [22]): 17.0 | Tuber Firmness (organic Russet potatoes; [22]): 0.0 MM | Avg Length of sprouts (organic Russet potatoes; [23]): 1.2 | Avg. Number of sprouts (organic Russet potatoes; [23]): 0.3 | Number of Sprouts (organic Russet potatoes; [23]): 17.0 | Tuber Firmness (organic Russet potatoes; [23]): 0.0 MM | Avg Length of sprouts (organic Russet potatoes; [24]): 0 | Avg. Number of sprouts (organic Russet potatoes; [24]): 0 | Number of Sprouts (organic Russet potatoes; [24]): 0 | Tuber Firmness (organic Russet potatoes; [24]): 0.0 MM | Avg Length of sprouts (organic Russet potatoes; [25]): 0 | Avg. Number of sprouts (organic Russet potatoes; [25]): 0 | Number of Sprouts (organic Russet potatoes; [25]): 0 | Tuber Firmness (organic Russet potatoes; [25]): 0.0 MM | Avg Length of sprouts (organic Russet potatoes; [26]): 0 | Avg. Number of sprouts (organic Russet potatoes; [26]): 0 | Number of Sprouts (organic Russet potatoes; [26]): 0 | Tuber Firmness (organic Russet potatoes; [26]): 0.0 MM | phyto-toxic effects (organic Russet potatoes; 200 g-h/m^3, after 31 days): without any phyto-toxic effects | sprout inhibition (organic Russet potatoes; 200 g-h/m^3, after 31 days): best sprout inhibition | peel testing, black spot (organic Russet potatoes; all treatments of the study (50 to 200 g-h/m^3)): none of the treatments used in this study produced the black spot
